Columns and labels:
Format in all cases: in vivo
Meloidogyne incognita = experiment: Root infestation on agar plate: root knot count on potato microplant roots; settings: 60 μM in agar, galls counted 5 weeks after inoculation, four replicates
Description: 9 cm petri dishes were filled with a 15 ml agar. One stem cutting of a potato microplant (Solanum tuberosum cv. Desirée) was placed on top of the agar layer. After 2 to 3 weeks of incubation at 20° C., the root system was sufficiently developed to be inoculated.
The test compounds (see Table 1) were added 2 days before inoculation by way of spreading a 2 ml DMSO-solution with the compound over the agar and allowing the compound to diffuse in the agar during two days at constant temperature of 20° C. During incubation, the plates are protected from light in a dark incubator. The resulting concentration of each compound in each agar plate was 60 μM.
After incubation, approximately 400 axenic juveniles of Meloidogyne incognita species were added to the plate.
The plates were incubated in the dark at a constant temperature of 20° C. and 5 weeks after inoculation the number of galls formed on the roots were determined by counting. Also any toxic effect of the test compounds on the roots was recorded. 8 weeks after inoculation the plates were stored at low temperature.
Each compound was tested in four replicates. Positive controls were treated with different concentrations of Aldicarb, a known nematicide. Negative controls included 5 replicates of double negative controls (no compound, no nematode), 5 replicates of single negative controls (no compound, with nematode) and 5 replicates of DMSO controls (DMSO solution, with nematode).

[1] = system: Meloidogyne incognita nematodes; experiment: Pot Assay 1: Meloidogyne infection of potato, egg masses/galls on roots; settings: potato in pot, week 8 after inoculation
Description: 500 ml clay pots were filled with 400 ml of silver sand. One tuber of potato ( Solanum tuberosum cv. Bintje) was planted in the sand. After 2 to 3 weeks incubation, the potato plant was sufficiently developed to be inoculated.
Plants were grown under the usual standard greenhouse conditions at 14° C.-18° C., with 16 hours light and 8 hours dark and 80-90% relative humidity. The pots were watered using individual drippers and fertilizers were added under the form of macro- and micro nutrients according to plant growth requirements. When needed, the plants were sprayed with fungicides and insecticides.
The compounds as described herein were added one day before inoculation. The compounds were dissolved in a 20 ml DMSO-solution and spread over the sand surface. The final concentration is calculated under the assumption that the compound is diffused entirely in the pot. This process occurred during two days at the normal greenhouse conditions described above.
After compound incubation, approximately 1500 juveniles of Meloidogyne incognita nematodes were added to the pots.
The pots were incubated at the described greenhouse conditions until nematode development was completed. At week 8 after inoculation the number of galls formed on the roots was counted after washing off the sandy substrate. Also the effect of the compound on the plant development was recorded.
Every compound was tested in three replicates. Positive control plants were treated with different concentrations of aldicarb, a known nematicide. Negative controls involved 12 replicates of double negative controls (no compound, no nematode), 12 replicates of single negative controls (no compound, no DMSO, with nematode), 24 replicates of DMSO controls (DMSO solution, with nematode).
As assessment of the root development was taken into account.

[2] = system: root-knot nematode (Meloidogyne spp); experiment: Nematicide field trial on cucumber: root galling and yield; settings: for Average root galling: 0-5 Lamberti scale
Description: Open ground grown cucumber (Cucumis sativus cv Carine) were grown on sandy soil with a natural root-knot nematode (Meloidogyne spp) population. Soil samples, collected prior to planting, contained on average 8 J2 juveniles per 100 g soil. A program of 4 applications with intervals of about 14 days was started six days after transplantation.
(§1) An experimental pattern at Complete Randomized Blocks with four replicas was adopted. Besides the experimental products, each test also included an untreated control and a treatment with the standard commercial product VYDATE 10L (10%) applied in accordance to label instructions.
[…] The level of nematode attack of the root system at the time of harvesting was assessed by means of the lamberti scoring.

[3] = system: stubby root nematodes (Paratrichodorus), stunt nematodes (Tylenchorhynchus spp.), root lesion nematodes (Pratylenchus spp.) and root knot nematodes …; experiment: Nematicide field trial on carrots: % deformed carrots
Description: Garden carrots were grown in the open field. The soil contained high levels of stubby root nematodes (Paratrichodorus), stunt nematodes (Tylenchorhynchus spp.), root lesion nematodes (Pratylenchus spp.) and root knot nematodes (Meloidogyne spp.).
as §1
In carrots, nematodes cause deformation such as stunting, dwarfing, twisting, splitting and bearding. For these experiments, the total percentage of deformed carrots were considered, as these are not marketed for human consumption and are of no commercial interest.
Three different tests have been performed (Tables 9, 10 and 11), each containing an untreated and commercial reference control. All treatments were statistically different from untreated control.

With `Cc1cc(C2CC2)nc(Nc2ccccc2)n1` [XLIV] the “Root knot count, average of the replicate counts” value (Meloidogyne incognita) was 9.5, the “number of egg masses (galls) on roots, Replicate 3” value (“number of egg masses … Replicate 3” for short) ([1]; 0.5 μM) was 5 and the “number of egg masses (galls) on roots, Replicate 1” value (shortened to “number of egg masses … Replicate 1”) ([1]; 2 μM) was 20. The “number of egg masses … Replicate 3” value ([1]; 2 μM) was 15, the “number of egg masses … Replicate 1” value ([1]; 10 μM) was 20 and the “number of egg masses … Replicate 1” value ([1]; 50 μM) was 15. For the same compound, the “number of egg masses (galls) on roots, Replicate 2” value ([1]; 50 μM) was 25, the “number of egg masses … Replicate 3” value ([1]; 50 μM) was 5 and the “Average yield of marketable fruits” value ([2]; Product Rate 500 g ai/ha) was 7.3 kg/plant/pot. The Average root galling ([2]; Product Rate 500 g ai/ha) was 2.5, the “Average yield of marketable fruits” value ([2]; Product Rate 1500 g ai/ha) was 8.3 kg/plant/pot and the Average root galling ([2]; Product Rate 1500 g ai/ha) was 2.5. The “% total deformed” value ([3]; test of Table 9, Product Rate 500 g ai/ha) was 37.41%, the “% total deformed” value ([3]; test of Table 9, Product Rate 1500 g ai/ha) was 44.85% and the “% total deformed” value ([3]; test of Table 9, Product Rate 3000 g ai/ha) was 37.10%.
